Series [1] is described as follows: Phase II trials, adverse events. The series is classed as in vivo, women. The source says: The present invention was used to test a particular drug compound, NNC 46-0020, which was designed to protect healthy women from getting osteoporosis.
Series [2] is described as follows: Phase III trials, CUSUM surveillance of prolapses and urinary incontinence. It counts as in vivo, women. The source says: Phase III consisted of studies including 3000 women. The inclusion criteria were extended so that the women were older than those participating in phase II. Subjects were randomized to take either a placebo or NNC 46-0020 in one of two doses. […] As explained in detail below, this product has motivated the choice of parameters in the examples.
Early in phase III, a number of reports of prolapses and urinary incontinence were received. It was suspected that there were too many cases of prolapses and incontinence. Therefore, it was decided to set up a surveillance program, including expedited reporting of the events even though they are not classified as serious adverse events. Furthermore, investigators were instructed specifically to check for these types of events.
First, it was decided to set up separate programs for prolapses and incontinence, but later the etiology was suspected to be the same and therefore a combined program was used. The incidence of these events is poorly documented in the literature. There are a few reports on the prevalence and based on these, an incidence of 1%/year for each type of adverse event was chosen. This gives an estimated 60 events during the first year of the trial, distributed with 40 in the treatment group, and 20 in the placebo group. An alternative considered was to have a relative risk of 2, corresponding to an expected number of […]. The lower limit c was chosen as 0.
Due to the focus on these events, a number of adverse events were reported each day, and safety committee meetings were held each week. […] At this time, the process had passed not only the limit corresponding to the incidence of 1% of each type of adverse event, but also the limit corresponding to an incidence of 10%. Such “overrunning” seems to be unavoidable for multi-center studies. The distribution 44 to 1 corresponds to a relative risk of 22 for NNC 46-0020. […]

Consider one molecule from US6639515B2, “Surveillance system for adverse events during drug development studies” (Novo Nordisk A/S, priority 2001, dated 2003).

With `COc1ccc2c(c1)OC(C)(C)[C@@H](c1ccccc1)[C@@H]2c1ccc(OCCN2CCCC2)cc1` [NNC 46-0020], in series [1], the “adverse events in phase II trials” value is given as “without major problems regarding adverse events”. The “final analysis of risk of prolapses and incontinence” value in series [2] (after termination of the phase III trials, relative risk estimate reduced) is “increased risk of prolapses and incontinence”. Moreover, in series [2] (phase III, drug (two doses pooled, 2/3 of patients) versus placebo (1/3), at the committee meeting where the alarm limit was passed), the “relative risk of prolapses and incontinence” value came out at 22. The “distribution of adverse events (prolapses and incontinence), treatment group to placebo group” value in series [2] (phase III, unblinded cases at the committee meeting where the alarm limit was passed) lay in the range of 44 to 1.
